From PubChem BioAssay (NCI)
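Test compounds were applied to cells in 96-well plates for 48 hours at 5 doses. Here, GI50 denotes the concentration required for 50% inhibition of growth. TGI: concentration producing complete growth inhibition.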

How the values were obtained:
Assay in all cases: NCI tumour cell line growth inhibition, 48 h
HS 578T breast = tested on: HS 578T breast
SNB-75 CNS = tested on: SNB-75 CNS
OVCAR-4 ovarian = tested on: OVCAR-4 ovarian
SK-OV-3 ovarian = tested on: SK-OV-3 ovarian
UACC-62 melanoma = tested on: UACC-62 melanoma
SNB-19 CNS = tested on: SNB-19 CNS
SF-539 CNS = tested on: SF-539 CNS
MDA-MB-231 breast = tested on: MDA-MB-231 breast
NCI/ADR-RES ovarian = tested on: NCI/ADR-RES ovarian
PC-3 prostate = tested on: PC-3 prostate
HCC-2998 colon = tested on: HCC-2998 colon
IGROV1 ovarian = tested on: IGROV1 ovarian
NCI-H522 lung = tested on: NCI-H522 lung
SK-MEL-28 melanoma = tested on: SK-MEL-28 melanoma
MDA-MB-435 = tested on: MDA-MB-435
SN12C renal = tested on: SN12C renal
NCI-H23 lung = tested on: NCI-H23 lung
HOP-92 NSCLC = tested on: HOP-92 NSCLC
SW-620 colon = tested on: SW-620 colon
M14 melanoma = tested on: M14 melanoma
UACC-257 melanoma = tested on: UACC-257 melanoma
MALME-3M melanoma = tested on: MALME-3M melanoma
HOP-62 NSCLC = tested on: HOP-62 NSCLC
OVCAR-5 ovarian = tested on: OVCAR-5 ovarian
A549 NSCLC = tested on: A549 NSCLC
LOX IMVI melanoma = tested on: LOX IMVI melanoma
SF-268 CNS = tested on: SF-268 CNS
TK-10 renal = tested on: TK-10 renal
NCI-H226 lung = tested on: NCI-H226 lung
HT29 colon = tested on: HT29 colon
RPMI-8226 leukemia = tested on: RPMI-8226 leukemia
SF-295 CNS = tested on: SF-295 CNS
EKVX NSCLC = tested on: EKVX NSCLC
SR leukemia = tested on: SR leukemia
MCF7 breast = tested on: MCF7 breast
DU-145 prostate = tested on: DU-145 prostate
MOLT-4 leukemia = tested on: MOLT-4 leukemia
786-0 renal = tested on: 786-0 renal
CAKI-1 renal = tested on: CAKI-1 renal
U251 CNS = tested on: U251 CNS
A498 renal = tested on: A498 renal
CCRF-CEM leukemia = tested on: CCRF-CEM leukemia
SK-MEL-2 melanoma = tested on: SK-MEL-2 melanoma
COLO 205 colon = tested on: COLO 205 colon
UO-31 renal = tested on: UO-31 renal
NCI-H460 lung = tested on: NCI-H460 lung
HCT-116 colon = tested on: HCT-116 colon
KM12 colon = tested on: KM12 colon
T-47D breast = tested on: T-47D breast
ACHN renal = tested on: ACHN renal
K-562 leukemia = tested on: K-562 leukemia
OVCAR-8 ovarian = tested on: OVCAR-8 ovarian
HCT-15 colon = tested on: HCT-15 colon
OVCAR-3 ovarian = tested on: OVCAR-3 ovarian
SK-MEL-5 melanoma = tested on: SK-MEL-5 melanoma
RXF 393 renal = tested on: RXF 393 renal

## COc1cc(CC2C(=O)NC(=O)NC2=O)ccc1OCc1ccccc1
HS 578T breast
  GI50: 91.3 µg/mL
SNB-75 CNS
  GI50: 38 µg/mL
OVCAR-4 ovarian
  GI50: 59.8 µg/mL

## NS(=O)(=O)c1ccc(N2N=C3c4ccccc4CC3C2c2ccc(Cl)cc2)cc1 (stereo not given)
SK-OV-3 ovarian
  GI50: 12.4 µM
  TGI: 49.4 µM
UACC-62 melanoma
  GI50: 5.97 µM
  TGI: 22.7 µM
SNB-19 CNS
  GI50: 17.3 µM
  TGI: > 100 µM
SF-539 CNS
  GI50: 9.07 µM
  TGI: 30.8 µM
MDA-MB-231 breast
  GI50: 2.89 µM
  TGI: 8.24 µM
NCI/ADR-RES ovarian
  GI50: 10.3 µM
  TGI: 38.5 µM
PC-3 prostate
  GI50: 7.17 µM
  TGI: 22.6 µM
HCC-2998 colon
  GI50: 10.3 µM
  TGI: 27.7 µM
IGROV1 ovarian
  GI50: 3.48 µM
  TGI: 19.6 µM
NCI-H522 lung
  GI50: 8.44 µM
  TGI: 28.6 µM
SK-MEL-28 melanoma
  GI50: 10 µM
  TGI: 28.7 µM
MDA-MB-435
  GI50: 16.1 µM
  TGI: 37.2 µM
HS 578T breast
  GI50: 4.61 µM
  TGI: 19.2 µM
SN12C renal
  GI50: 6.75 µM
  TGI: 25.6 µM
NCI-H23 lung
  GI50: 11.4 µM
  TGI: 34.8 µM
SNB-75 CNS
  GI50: 2.97 µM
  TGI: 7.94 µM
HOP-92 NSCLC
  GI50: 10.3 µM
  TGI: 28.9 µM
SW-620 colon
  GI50: 4.71 µM
  TGI: 29.8 µM
M14 melanoma
  GI50: 10.1 µM
  TGI: 36.1 µM
UACC-257 melanoma
  GI50: 11.4 µM
  TGI: 32.6 µM
MALME-3M melanoma
  GI50: 4.23 µM
  TGI: 19.6 µM
HOP-62 NSCLC
  GI50: 21.1 µM
  TGI: 47.4 µM
OVCAR-5 ovarian
  GI50: 15.9 µM
  TGI: 56.5 µM
A549 NSCLC
  GI50: 10.8 µM
  TGI: 34 µM
LOX IMVI melanoma
  GI50: 18 µM
  TGI: 36.5 µM
SF-268 CNS
  GI50: 22.1 µM
  TGI: 54 µM
TK-10 renal
  GI50: 8.32 µM
  TGI: 27.3 µM
NCI-H226 lung
  GI50: 10.9 µM
  TGI: 38.7 µM
HT29 colon
  GI50: 15.7 µM
  TGI: > 100 µM
RPMI-8226 leukemia
  GI50: 2.73 µM
  TGI: 24 µM
SF-295 CNS
  GI50: 16.3 µM
  TGI: 34.2 µM
EKVX NSCLC
  GI50: 14.1 µM
  TGI: 58.9 µM
SR leukemia
  GI50: 2.19 µM
  TGI: > 100 µM
MCF7 breast
  GI50: 25 µM
  TGI: 59.5 µM
DU-145 prostate
  GI50: 14.2 µM
  TGI: 36.7 µM
MOLT-4 leukemia
  GI50: 7.58 µM
  TGI: > 100 µM
786-0 renal
  GI50: 6.28 µM
  TGI: 24.9 µM
CAKI-1 renal
  GI50: 18.2 µM
  TGI: 32.8 µM
U251 CNS
  GI50: 20.2 µM
  TGI: 42.5 µM
A498 renal
  GI50: 2.55 µM
  TGI: 6.6 µM
CCRF-CEM leukemia
  GI50: 6.48 µM
  TGI: 42.4 µM
SK-MEL-2 melanoma
  GI50: 8.23 µM
  TGI: 28.4 µM
COLO 205 colon
  GI50: 4.99 µM
  TGI: > 100 µM
UO-31 renal
  GI50: 7.88 µM
  TGI: 23.8 µM
OVCAR-4 ovarian
  GI50: 9.77 µM
  TGI: 30.6 µM
NCI-H460 lung
  GI50: 19.7 µM
  TGI: 41.8 µM
HCT-116 colon
  GI50: 6.04 µM
  TGI: > 100 µM
KM12 colon
  GI50: 5.54 µM
  TGI: 49.8 µM
T-47D breast
  GI50: 32.9 µM
  TGI: > 100 µM
ACHN renal
  GI50: 17.5 µM
  TGI: 31.6 µM
K-562 leukemia
  GI50: 10.6 µM
  TGI: > 100 µM
OVCAR-8 ovarian
  GI50: 11.8 µM
  TGI: 33.4 µM
HCT-15 colon
  GI50: 18.2 µM
  TGI: 38.3 µM
OVCAR-3 ovarian
  GI50: 17.3 µM
  TGI: 34.7 µM
SK-MEL-5 melanoma
  GI50: 2.3 µM
  TGI: 5.85 µM
RXF 393 renal
  GI50: 5.07 µM
  TGI: 19.7 µM
